Experimental data published in article PMC4669708 (Cell Death & Disease, 2015).

Legend:
Experiment in all cases: c-ponatinib pulldown LC-MS/MS
Type in all cases: binding
MAP4K2 = target: T1, MAP4K2 (Homo sapiens, UniProt Q12851)
T1 sequence (Q12851 1-820): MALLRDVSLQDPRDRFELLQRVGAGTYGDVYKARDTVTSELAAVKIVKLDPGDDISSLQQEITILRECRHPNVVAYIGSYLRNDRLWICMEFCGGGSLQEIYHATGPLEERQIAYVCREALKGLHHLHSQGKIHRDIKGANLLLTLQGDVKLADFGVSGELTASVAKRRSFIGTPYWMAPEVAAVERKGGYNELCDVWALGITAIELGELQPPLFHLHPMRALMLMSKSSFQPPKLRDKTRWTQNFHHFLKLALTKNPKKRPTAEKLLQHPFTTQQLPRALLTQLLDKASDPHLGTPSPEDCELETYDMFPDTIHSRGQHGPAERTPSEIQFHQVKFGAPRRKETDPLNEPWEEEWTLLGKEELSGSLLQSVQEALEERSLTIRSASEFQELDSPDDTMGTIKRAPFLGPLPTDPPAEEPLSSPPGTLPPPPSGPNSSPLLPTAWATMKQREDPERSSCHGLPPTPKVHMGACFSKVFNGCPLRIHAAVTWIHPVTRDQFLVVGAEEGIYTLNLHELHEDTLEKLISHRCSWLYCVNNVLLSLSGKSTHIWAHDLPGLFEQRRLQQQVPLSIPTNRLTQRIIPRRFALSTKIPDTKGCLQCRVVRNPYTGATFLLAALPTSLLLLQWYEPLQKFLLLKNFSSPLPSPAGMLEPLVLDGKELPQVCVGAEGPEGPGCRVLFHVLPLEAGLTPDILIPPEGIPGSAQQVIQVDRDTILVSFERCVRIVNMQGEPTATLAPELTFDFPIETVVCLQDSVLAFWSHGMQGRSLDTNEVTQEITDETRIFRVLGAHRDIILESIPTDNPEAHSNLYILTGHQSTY
How it was run: (§1)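 c-Ponatinib (25 nmol) immobilized on NHS-Sepharose was incubated with 10 mg whole cell lysate per replicate, in duplicate. Eluates were reduced, alkylated, trypsin-digested and analysed by gel-free 1D LC-MS/MS. Specificity was scored from Mascot, Phenyx and spectral counts, with competition by free compound.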

CDK19 = CDK19 (Homo sapiens, UniProt Q9BWU1)
Sequence of CDK19 (Q9BWU1 whole entry): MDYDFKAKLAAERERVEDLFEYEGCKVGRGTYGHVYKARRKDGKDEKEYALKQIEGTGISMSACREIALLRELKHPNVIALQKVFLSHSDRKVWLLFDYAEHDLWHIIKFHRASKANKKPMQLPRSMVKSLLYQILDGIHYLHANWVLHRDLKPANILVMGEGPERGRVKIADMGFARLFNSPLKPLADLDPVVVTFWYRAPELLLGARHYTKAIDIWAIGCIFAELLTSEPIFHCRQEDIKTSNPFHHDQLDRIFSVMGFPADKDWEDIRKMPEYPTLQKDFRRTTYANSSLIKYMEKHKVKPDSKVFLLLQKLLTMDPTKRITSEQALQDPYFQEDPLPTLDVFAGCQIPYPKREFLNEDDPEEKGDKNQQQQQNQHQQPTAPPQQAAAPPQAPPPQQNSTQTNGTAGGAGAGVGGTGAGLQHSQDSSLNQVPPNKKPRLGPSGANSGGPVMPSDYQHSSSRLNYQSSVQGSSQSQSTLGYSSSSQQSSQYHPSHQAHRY
Sequence of CDK19 (P24863 whole entry partner): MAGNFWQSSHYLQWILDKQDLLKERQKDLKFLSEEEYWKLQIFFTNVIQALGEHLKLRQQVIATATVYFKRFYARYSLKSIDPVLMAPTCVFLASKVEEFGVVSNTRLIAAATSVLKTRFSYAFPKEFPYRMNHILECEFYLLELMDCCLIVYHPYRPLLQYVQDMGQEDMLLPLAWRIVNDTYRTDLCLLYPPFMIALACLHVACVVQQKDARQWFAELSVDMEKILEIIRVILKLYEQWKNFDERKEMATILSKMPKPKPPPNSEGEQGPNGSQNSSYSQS
How it was run: as §1

MAP3K7 = target: T2, MAP3K7 (Homo sapiens, UniProt O43318)
T2 sequence (O43318 1-606): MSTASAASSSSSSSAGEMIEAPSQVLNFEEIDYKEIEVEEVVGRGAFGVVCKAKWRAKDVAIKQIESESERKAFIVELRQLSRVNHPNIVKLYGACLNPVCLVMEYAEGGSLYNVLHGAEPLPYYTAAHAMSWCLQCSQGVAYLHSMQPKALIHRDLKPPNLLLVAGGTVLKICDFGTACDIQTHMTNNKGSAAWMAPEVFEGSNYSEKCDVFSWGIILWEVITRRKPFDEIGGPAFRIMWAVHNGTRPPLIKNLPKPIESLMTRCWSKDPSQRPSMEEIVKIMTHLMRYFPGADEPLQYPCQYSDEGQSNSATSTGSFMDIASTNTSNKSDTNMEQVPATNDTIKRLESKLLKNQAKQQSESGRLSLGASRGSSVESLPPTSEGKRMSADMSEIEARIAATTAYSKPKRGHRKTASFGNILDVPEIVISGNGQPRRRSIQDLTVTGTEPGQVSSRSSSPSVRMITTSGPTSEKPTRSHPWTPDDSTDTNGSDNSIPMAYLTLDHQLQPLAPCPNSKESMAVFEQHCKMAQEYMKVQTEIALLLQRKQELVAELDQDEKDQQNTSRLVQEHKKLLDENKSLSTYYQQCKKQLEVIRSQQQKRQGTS
How it was run: as §1

Av. SC comp. (MAP4K2; + free ponatinib): 0 | Total SC comp. (MAP4K2; + free ponatinib): 0 | Av. SC (MAP4K2; no competitor): 2.5 | Total SC (MAP4K2; no competitor): 10 | Av. SC comp. (CDK19; + free ponatinib): 0 | Total SC comp. (CDK19; + free ponatinib): 0 | Av. SC (CDK19; no competitor): 7.5 | Total SC (CDK19; no competitor): 30 | Av. SC comp. (MAP3K7; + free ponatinib): 2.25 | Total SC comp. (MAP3K7; + free ponatinib): 9 | Av. SC (MAP3K7; no competitor): 19.5 | Total SC (MAP3K7; no competitor): 78
Structure (SMILES): Cc1ccc(C(=O)Nc2ccc(CN3CCN(CCCN)CC3)c(C(F)(F)F)c2)cc1C#Cc1cnc2cccnn12 [c-ponatinib]
